Read-outs that look alike come from different tables or passages of the source.
Assays:
[1] = system: CCRF-CEM; assay: CellTiterGlo viability assay, initial screening; assay type: cell-based; conditions: Homo sapiens, read-out: IC50 (relative IC50)
Summary of the method: (§1)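 Cells were treated in duplicate for 72 hr under standard growth conditions with a 9-point, 3.16-fold compound titration (lowest final 19.9 nM, 0.5% DMSO final). Viability was then read by CellTiter-Glo.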

[2] = system: HL-60; assay: CellTiterGlo viability assay, initial screening; assay type: cell-based; conditions: Homo sapiens, read-out: IC50 (relative IC50)
Summary of the method: as §1

[3] = system: HepG2; assay: CellTiterGlo viability assay, initial screening; assay type: cell-based; conditions: Homo sapiens, read-out: IC50 (relative IC50)
Summary of the method: as §1

[4] = system: K562; assay: CellTiterGlo viability assay, initial screening; assay type: cell-based; conditions: Homo sapiens, read-out: IC50 (relative IC50)
Summary of the method: as §1

[5] = system: KG-1; assay: CellTiterGlo viability assay, initial screening; assay type: cell-based; conditions: Homo sapiens, read-out: IC50 (relative IC50)
Summary of the method: as §1

[6] = system: MCF-7; assay: CellTiterGlo viability assay, initial screening; assay type: cell-based; conditions: Homo sapiens, read-out: IC50 (relative IC50)
Summary of the method: as §1

[7] = system: MOLT-4; assay: CellTiterGlo viability assay, initial screening; assay type: cell-based; conditions: Homo sapiens, read-out: IC50 (relative IC50)
Summary of the method: as §1

[8] = system: CCRF-CEM (TdT positive CEM); assay: ATP (ViaLight plus) cytotoxicity assay; assay type: cell-based, Human; conditions: for IC50: Homo sapiens, CCRF-CEM
Procedure: (§2) Certain compounds of the invention were subjected to further studies to test the cytotoxic activity of certain compounds of the invention and also to measure their activity against 4 haematological cancer cell lines • TdT positive CEM (Human ALL) • TdT negative K562 (Human CML) • TdT negative H1-60 (Human ANLL) • RL (CRL-2261) non-HD lymphoma • The concentrations of the active metabolite dATP (Cordycepin triphosphate) in these cell lines was also measured. • The cytotoxic activity and the intracellular 3′-dATP concentrations were also studied in the presence of hENT1, Adenosine Kinase (AK) and Adenosine Deaminase pharmacological inhibitors in CEM and RL cancer cell lines. Said inhibitors that mimic known cancer resistance mechanisms. Methods Cell Culture
(§3) HL-60 (ATCC® CCL-240™), K562 (ATCC® CCL-243™), CCRF-CEM (ATCC® CRM-CCL-119™) and RL (ATCC® CRL-2261™) leukaemia cell lines, obtained from the American Type Culture Collection (ATCC), Middlesex. HL-60 and K562 cell lines are deoxynucleotidyl transferase-negative (TdT-ve), whereas CCRF-CEM cell line is TdT+ve.
(§4) HL-60, K562, CCRF-CEM and RL cell lines were cultured in RPMI-1640 medium (Sigma Aldrich, UK), which were supplemented with 10% Fetal Bovine Serum (FBS) (PAA Laboratories), 1% amphotericin B (5.5 ml) and 1% penicillin/streptomycin (5.5 ml) (PAA Laboratories) and grown in flasks at 37° C. incubator with 5% CO2.
(§5) The amount of ATP was used as a measurement of cell number and cell viability. ATP ViaLight™ plus assay kit (Lonza, USA: Product No. LT07-121) to detect ATP in cells treated in luminescence compatible 96 well plates (initial concentration of cells was 1×10^4 cells/well) with cordycepin and ProTides at concentrations of: 0, 0.1, 0.5, 1, 5 and 10 μM, followed by incubation for 72 hours at 37° C. incubator with 5% CO2. For inhibitor studies, 10 μM of NBTI or 1 μM EHNA or A-134974 was added and left for 5 minutes before adding the drugs (see section 5 for inhibitor details).
(§6) After incubation, 50 μl of cell lysis reagent was added to the 96 well plates to release the intracellular ATP, followed by 100 μl of ATP monitoring reagent (AMR). The luminescent values of each well were determined using FLUOstar OPTIMA microplate reader (BMG Labtech) which convert ATP into light by using luciferase enzyme. Therefore, the amount of luminescence produced was directly proportional to the amount of ATP.
(§7) Cell lines were treated in the same way as described above but before treatment with drugs, a number of inhibitors were added: • 1) Nitrobenzylthioinosine (NBTI) (Sigma-Aldrich, St. Louis, Mo., product # N2255) blocks nucleoside transporters • 2) EHNA hydrochloride (Sigma-Aldrich, St. Louis, Mo., product # E114) blocks adenosine deaminase • 3) Adenosine kinase inhibitor A-134974 dihydrochloride hydrate (Sigma-Aldrich, St. Louis, Mo., product # A2846): blocks adenosine kinase
(§8) The dose-response curves of cytotoxicity of the drugs was determined using non-linear regression analysis of percentage cell viability versus concentration and EC50 values were obtained. The intracellular assay was conducted in five replicates for each condition. Intracellular assay was determined using paired t test (two-tailed) analysis of 3′ATP/ATP concentration and p-values were obtained. For all the analysis, Prism Software program (GraphPad Software) was used and Microsoft Powerpoint® 2013 was used to plot the results.

[9] = system: HL-60 (TdT negative); assay: ATP (ViaLight plus) cytotoxicity assay; assay type: cell-based, Human; conditions: for IC50: Homo sapiens; for (FD) fold difference compared to Cordycepin = Cordycepin IC50/ProTide IC50: HL-60
Procedure: as §2, §3, §4, §5, §6, §8

[10] = system: K562 (TdT negative); assay: ATP (ViaLight plus) cytotoxicity assay; assay type: cell-based, Human; conditions: for IC50: Homo sapiens; for (FD) fold difference compared to Cordycepin = Cordycepin IC50/ProTide IC50: K562
Procedure: as §2, §3, §4, §5, §6, §8

[11] = system: RL (CRL-2261); assay: ATP (ViaLight plus) cytotoxicity assay; assay type: cell-based
Procedure: as §2, §3, §4, §5, §6, §7, §8

[12] = CEM, with AK (adenosine kinase inhibitor A-134974, 1 μM)
[13] = CEM, with EHNA 1 μM (adenosine deaminase blocker)
[14] = CEM, with NBTI 10 μM (nucleoside transporter blocker)
[15] = CRL, with AK (adenosine kinase inhibitor A-134974, 1 μM)
[16] = CRL, with EHNA 1 μM (adenosine deaminase blocker)
[17] = CRL, with NBTI 10 μM (nucleoside transporter blocker)

| Structure (SMILES) | (FD) fold difference compared to control ([8]; CEM, IC50 with AK inhibitor) | (FD) fold difference compared to control ([8]; CEM, IC50 with NBTI) | IC50 ([1]; 72 h) [µM] | IC50 ([2]; HL-60, 72 h) [µM] | IC50 ([3]; HepG2, 72 h) [µM] | IC50 ([4]; K562, 72 h) [µM] | IC50 ([5]; KG-1, 72 h) [µM] | IC50 ([6]; MCF7, 72 h) [µM] | IC50 ([7]; MOLT-4, 72 h) [µM] | (FD) fold difference compared to Cordycepin = Cordycepin IC50/ProTide IC50 ([8]; CEM (TdT+ve)) | (FD) fold difference compared to control ([8]; CEM, IC50 with EHNA) | IC50 ([8]; 72 h, CEM (TdT+ve), 72 hours) [µM] | IC50 ([8]; CEM, Control (no inhibitor)) [µM] | IC50 [8, 12] [µM] | IC50 [8, 13] [µM] | IC50 [8, 14] [µM] | (FD) fold difference compared to Cordycepin = Cordycepin IC50/ProTide IC50 [9] | IC50 ([9]; HL-60, 72 h) [µM] | IC50 ([10]; K562, 72 h) [µM] | IC50 ([11]; 72 h, CRL (RL, CRL-2261)) [µM] | also measured |
| --- | --- | --- | --- | --- | --- | --- | --- | --- | --- | --- | --- | --- | --- | --- | --- | --- | --- | --- | --- | --- | --- |
| Nc1ncnc2c1ncn2[C@@H]1O[C@H](CO)C[C@H]1O [Cordycepin, 3′-deoxyadenosine, reference compound] | (3) | (5) |  |  |  |  |  |  |  |  |  |  |  |  |  |  |  |  |  |  | IC50 ([1]; 72 hr): 15 to 100 µM; IC50 ([2]; HL-60, 72 hr): 15 to 100 µM; IC50 ([3]; HepG2, 72 hr): 15 to 100 µM; IC50 ([4]; K562, 72 hr): 15 to 100 µM; IC50 ([5]; KG-1, 72 hr): 15 to 100 µM; IC50 ([6]; MCF7, MCF-7, 72 hr): 15 to 100 µM; IC50 ([7]; MOLT-4, 72 hr): 15 to 100 µM; IC50 ([8]; 72 h, CEM (TdT+ve), 72 hours, read-out: IC50): 19.5 µM; IC50 ([8]; CEM, Control (no inhibitor), read-out: IC50): 11.5 µM; IC50 ([8]; CEM, with AK (adenosine kinase inhibitor A-134974, 1 μM), read-out: IC50): 29.2 µM; IC50 ([8]; CEM, with EHNA 1 μM (adenosine deaminase blocker), read-out: IC50): 0.7 µM; IC50 ([8]; CEM, with NBTI 10 μM (nucleoside transporter blocker), read-out: IC50): 57.7 µM; IC50 ([9]; HL-60, 72 hours, read-out: IC50): 11.4 µM; IC50 ([10]; K562, 72 hours, read-out: IC50): 10.9 µM; IC50 ([11]; 72 h, CRL (RL, CRL-2261), 72 hours, read-out: IC50): 24.5 µM; IC50 ([11]; CRL, Control (no inhibitor), read-out: IC50): 7.3 µM; IC50 ([11]; CRL, with AK (adenosine kinase inhibitor A-134974, 1 μM), read-out: IC50): 28.6 µM; IC50 ([11]; CRL, with EHNA 1 μM (adenosine deaminase blocker), read-out: IC50): 13.2 µM; IC50 ([11]; CRL, with NBTI 10 μM (nucleoside transporter blocker), read-out: IC50): 17.9 µM |
| C[C@H](NP(=O)(OC[C@@H]1CC(O)[C@H](n2cnc3c(N)ncnc32)O1)Oc1ccccc1)C(=O)OCc1ccccc1 (stereo partly drawn) [Compound A, 3′-deoxyadenosine-5′-O-[phenyl(benzyloxy-L-alaninyl)] phosphate] | (3) | (1) | 0.1 to 5 | 5 to 15 | 5 to 15 | 0.1 to 5 | 5 to 15 | 0.1 to 5 | 0.1 to 5 | (22) | (2.2) | 0.87 | 1.4 | 3.6 | 3.1 | 2 | (3) | 4.6 | 2.4 | 2.1 | (FD) fold difference compared to Cordycepin = Cordycepin IC50/ProTide IC50 [10]: (5); (FD) fold difference compared to Cordycepin = Cordycepin IC50/ProTide IC50 ([11]; CRL (RL, CRL-2261)): (12); IC50 ([11]; CRL, Control (no inhibitor)): 3.6 µM; (FD) fold difference compared to control ([11]; CRL, IC50 with AK inhibitor): (3); (FD) fold difference compared to control ([11]; CRL, IC50 with EHNA): (1); (FD) fold difference compared to control ([11]; CRL, IC50 with NBTI): (1); IC50 [11, 15]: 10.2 µM; IC50 [11, 16]: 2.9 µM; IC50 [11, 17]: 2.6 µM |
| CCOC(=O)CCc1ccccc1OP(=O)(N[C@@H](C)C(=O)OCc1ccccc1)OC[C@@H]1C[C@@H](O)[C@H](n2cnc3c(N)ncnc32)O1 (stereo partly drawn) [F, (2S)-benzyl 2-(((((2S,4R,5R)-5-(6-amino-9H-purin-9-yl)-4-hydroxytetrahydrofuran-2-yl)methoxy)(2-(3-ethoxy-3-oxopropyl)phenoxy)phosphoryl)amino)propanoate] |  |  |  | 15 to 100 | 15 to 100 | 15 to 100 | 15 to 100 | 5 to 15 | 0.1 to 5 | (5) |  | 4.3 |  |  |  |  | (1) | 8.3 | 6.3 | 3.4 | (FD) fold difference compared to Cordycepin = Cordycepin IC50/ProTide IC50 [10]: (2); (FD) fold difference compared to Cordycepin = Cordycepin IC50/ProTide IC50 ([11]; CRL (RL, CRL-2261)): (7) |
| C[C@H](NP(=O)(OC[C@@H]1C[C@@H](O)[C@H](n2cnc3c(N)ncnc32)O1)Oc1cccc2ccccc12)C(=O)OCc1ccccc1 (stereo partly drawn) [B, (2S)-benzyl 2-(((((2S,4R,5R)-5-(6-amino-9H-purin-9-yl)-4-hydroxytetrahydrofuran-2-yl)methoxy)(naphthalen-1-yloxy)phosphoryl)amino)propanoate] | (1) | (1) | 0.1 to 5 | 5 to 15 | 5 to 15 | 0.1 to 5 | 5 to 15 | 0.1 to 5 | 0.1 to 5 |  | (1) | 0.13 | 0.9 | 1.3 | 1.3 | 1.4 | (4) | 2.6 | 0.21 | 0.4 | IC50 ([11]; CRL, Control (no inhibitor)): 3.1 µM; (FD) fold difference compared to control ([11]; CRL, IC50 with AK inhibitor): (1); (FD) fold difference compared to control ([11]; CRL, IC50 with EHNA): (2); (FD) fold difference compared to control ([11]; CRL, IC50 with NBTI): (1); IC50 [11, 15]: 2.8 µM; IC50 [11, 16]: 5.2 µM; IC50 [11, 17]: 2.6 µM |

Reference: patent US10570168B2, “2′ and/or 5′ amino-acid ester phosphoramidate 3′-deoxy adenosine derivatives as anti- cancer compounds” (NuCana plc, priority 2014, dated 2020)
